Laboratory results published in paper PMC3445516 (PLoS ONE, 2012).
Like-named read-outs stand apart in the source and are kept apart here. One block for each compound: values may come before it.

Tests used:
Experiment in all cases: Ambit kinase profiling, competition binding
[1] = molecular target: T1, EGFR(L747-S752del, P753S) (Homo sapiens, UniProt P00533, DEL747-752/P753S); conditions: for % Competition: 10 µM
T1 construct: purchased Ambit Biosciences (KINOMEscan)
Procedure: (§1) Also included in the kinase profile are four isoforms of PKC (δ, ε, η, θ) and eight isoforms of CAMKs (CAMKIα, δ, γ; CAMKIIα, β, δ, γ; CAMK4).
(§2) The global kinase profiling experiment was performed by Ambit Biosciences.

[2] = molecular target: T2, PAK7 (Homo sapiens, UniProt Q9P286)
T2 construct: purchased Ambit Biosciences (KINOMEscan)
T2 sequence (Q9P286 whole entry): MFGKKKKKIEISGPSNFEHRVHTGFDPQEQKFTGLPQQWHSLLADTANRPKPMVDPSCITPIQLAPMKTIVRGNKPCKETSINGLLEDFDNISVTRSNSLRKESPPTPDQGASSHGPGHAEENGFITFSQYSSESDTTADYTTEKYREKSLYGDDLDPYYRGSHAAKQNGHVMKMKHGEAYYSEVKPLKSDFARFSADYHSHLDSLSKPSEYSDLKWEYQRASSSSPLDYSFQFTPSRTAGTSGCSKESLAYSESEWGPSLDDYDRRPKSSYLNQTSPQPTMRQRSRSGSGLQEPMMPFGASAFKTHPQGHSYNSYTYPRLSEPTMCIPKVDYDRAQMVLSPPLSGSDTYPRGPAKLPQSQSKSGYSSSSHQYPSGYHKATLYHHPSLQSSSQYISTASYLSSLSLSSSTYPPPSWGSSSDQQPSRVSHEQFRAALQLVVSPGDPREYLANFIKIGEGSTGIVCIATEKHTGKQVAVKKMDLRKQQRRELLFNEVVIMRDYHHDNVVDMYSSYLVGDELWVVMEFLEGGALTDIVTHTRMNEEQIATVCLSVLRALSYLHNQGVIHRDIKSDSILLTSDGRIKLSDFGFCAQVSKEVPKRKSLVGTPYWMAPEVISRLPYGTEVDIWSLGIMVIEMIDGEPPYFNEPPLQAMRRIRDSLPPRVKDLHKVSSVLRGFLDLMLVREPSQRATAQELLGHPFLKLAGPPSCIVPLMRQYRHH
Procedure: as §1, §2

[3] = molecular target: T3, PCTK3 (Homo sapiens, UniProt Q07002)
T3 construct: purchased Ambit Biosciences (KINOMEscan)
T3 sequence (Q07002 whole entry): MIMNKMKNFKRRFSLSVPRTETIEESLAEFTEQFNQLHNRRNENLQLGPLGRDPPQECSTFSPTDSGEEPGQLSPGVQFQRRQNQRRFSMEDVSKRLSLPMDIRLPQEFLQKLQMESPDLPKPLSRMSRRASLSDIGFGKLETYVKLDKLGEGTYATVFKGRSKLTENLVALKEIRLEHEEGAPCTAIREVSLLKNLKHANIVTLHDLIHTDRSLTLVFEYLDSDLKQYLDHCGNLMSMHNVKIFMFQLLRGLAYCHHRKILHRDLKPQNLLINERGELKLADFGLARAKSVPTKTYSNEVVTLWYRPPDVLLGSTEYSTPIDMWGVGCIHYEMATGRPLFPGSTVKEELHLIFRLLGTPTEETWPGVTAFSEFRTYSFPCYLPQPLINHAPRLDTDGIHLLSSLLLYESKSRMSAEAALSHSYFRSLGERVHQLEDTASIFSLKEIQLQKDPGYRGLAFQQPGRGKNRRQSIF
Procedure: as §1, §2

[4] = molecular target: T4, TTK (Homo sapiens, UniProt P33981)
T4 construct: purchased Ambit Biosciences (KINOMEscan)
T4 sequence (P33981 1-857): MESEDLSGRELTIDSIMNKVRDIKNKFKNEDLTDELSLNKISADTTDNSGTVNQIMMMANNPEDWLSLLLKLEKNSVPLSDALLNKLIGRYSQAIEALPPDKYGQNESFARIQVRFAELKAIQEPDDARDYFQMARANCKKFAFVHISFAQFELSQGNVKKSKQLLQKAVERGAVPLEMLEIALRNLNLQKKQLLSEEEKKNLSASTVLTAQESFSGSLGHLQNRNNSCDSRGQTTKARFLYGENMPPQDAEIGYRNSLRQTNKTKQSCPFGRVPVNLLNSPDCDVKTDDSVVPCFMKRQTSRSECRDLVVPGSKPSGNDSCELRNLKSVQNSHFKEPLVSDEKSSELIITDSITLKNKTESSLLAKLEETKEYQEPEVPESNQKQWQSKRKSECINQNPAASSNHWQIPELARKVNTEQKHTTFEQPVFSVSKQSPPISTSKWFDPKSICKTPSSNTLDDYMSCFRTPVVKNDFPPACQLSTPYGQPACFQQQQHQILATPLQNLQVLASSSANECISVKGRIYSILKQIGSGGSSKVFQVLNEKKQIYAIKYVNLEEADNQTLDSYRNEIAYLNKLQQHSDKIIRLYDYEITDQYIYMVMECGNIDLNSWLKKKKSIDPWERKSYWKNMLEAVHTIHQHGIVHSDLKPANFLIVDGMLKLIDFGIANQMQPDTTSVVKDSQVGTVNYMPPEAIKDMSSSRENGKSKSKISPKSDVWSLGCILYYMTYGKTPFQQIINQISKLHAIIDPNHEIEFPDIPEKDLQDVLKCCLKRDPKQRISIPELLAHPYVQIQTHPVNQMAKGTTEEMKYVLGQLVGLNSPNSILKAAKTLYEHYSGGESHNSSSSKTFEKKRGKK
Procedure: as §1, §2

[5] = molecular target: T5, p38-beta (Homo sapiens, UniProt Q15759)
T5 construct: purchased Ambit Biosciences (KINOMEscan)
T5 sequence (Q15759 whole entry): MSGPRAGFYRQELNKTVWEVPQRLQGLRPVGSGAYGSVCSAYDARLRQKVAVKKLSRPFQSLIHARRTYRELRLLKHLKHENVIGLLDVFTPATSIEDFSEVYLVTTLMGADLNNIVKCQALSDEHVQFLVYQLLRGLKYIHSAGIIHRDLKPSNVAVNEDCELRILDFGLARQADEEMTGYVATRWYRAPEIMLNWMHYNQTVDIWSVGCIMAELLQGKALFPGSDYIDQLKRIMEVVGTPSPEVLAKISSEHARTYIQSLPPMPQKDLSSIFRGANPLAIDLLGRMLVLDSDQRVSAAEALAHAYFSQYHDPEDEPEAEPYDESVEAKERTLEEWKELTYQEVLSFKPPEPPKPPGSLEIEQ
Procedure: as §1, §2

[6] = molecular target: T6, CSNK1E (Homo sapiens, UniProt P49674)
T6 construct: purchased Ambit Biosciences (KINOMEscan)
T6 sequence (P49674 whole entry): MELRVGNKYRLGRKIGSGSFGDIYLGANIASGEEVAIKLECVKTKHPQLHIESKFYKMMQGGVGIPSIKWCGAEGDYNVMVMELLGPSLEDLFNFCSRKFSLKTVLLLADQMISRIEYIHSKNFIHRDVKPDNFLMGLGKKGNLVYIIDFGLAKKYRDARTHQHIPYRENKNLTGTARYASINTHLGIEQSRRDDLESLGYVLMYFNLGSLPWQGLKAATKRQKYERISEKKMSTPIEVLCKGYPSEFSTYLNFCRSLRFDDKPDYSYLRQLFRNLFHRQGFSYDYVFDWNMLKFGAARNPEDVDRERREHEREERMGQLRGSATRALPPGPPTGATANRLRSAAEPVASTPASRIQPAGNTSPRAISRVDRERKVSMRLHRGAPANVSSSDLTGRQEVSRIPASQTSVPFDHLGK
Procedure: as §1, §2

[7] = molecular target: T7, CAMKIα (Homo sapiens, UniProt Q14012); conditions: for competition: CAMKIα, 10 µM
T7 construct: purchased Ambit Biosciences (KINOMEscan)
T7 sequence (Q14012 whole entry): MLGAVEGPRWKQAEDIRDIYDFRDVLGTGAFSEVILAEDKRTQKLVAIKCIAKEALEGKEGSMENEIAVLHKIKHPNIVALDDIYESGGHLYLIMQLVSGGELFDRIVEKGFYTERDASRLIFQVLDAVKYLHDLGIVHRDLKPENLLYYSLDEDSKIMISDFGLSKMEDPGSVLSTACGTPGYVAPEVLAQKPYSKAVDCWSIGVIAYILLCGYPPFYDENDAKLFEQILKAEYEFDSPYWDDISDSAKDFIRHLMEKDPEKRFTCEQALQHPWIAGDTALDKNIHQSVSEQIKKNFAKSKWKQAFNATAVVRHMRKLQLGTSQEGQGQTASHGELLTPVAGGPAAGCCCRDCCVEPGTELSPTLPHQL
Procedure: as §1, §2

[8] = molecular target: T8, PRKD1 (Homo sapiens, UniProt Q15139)
T8 construct: purchased Ambit Biosciences (KINOMEscan)
T8 sequence (Q15139 1-912): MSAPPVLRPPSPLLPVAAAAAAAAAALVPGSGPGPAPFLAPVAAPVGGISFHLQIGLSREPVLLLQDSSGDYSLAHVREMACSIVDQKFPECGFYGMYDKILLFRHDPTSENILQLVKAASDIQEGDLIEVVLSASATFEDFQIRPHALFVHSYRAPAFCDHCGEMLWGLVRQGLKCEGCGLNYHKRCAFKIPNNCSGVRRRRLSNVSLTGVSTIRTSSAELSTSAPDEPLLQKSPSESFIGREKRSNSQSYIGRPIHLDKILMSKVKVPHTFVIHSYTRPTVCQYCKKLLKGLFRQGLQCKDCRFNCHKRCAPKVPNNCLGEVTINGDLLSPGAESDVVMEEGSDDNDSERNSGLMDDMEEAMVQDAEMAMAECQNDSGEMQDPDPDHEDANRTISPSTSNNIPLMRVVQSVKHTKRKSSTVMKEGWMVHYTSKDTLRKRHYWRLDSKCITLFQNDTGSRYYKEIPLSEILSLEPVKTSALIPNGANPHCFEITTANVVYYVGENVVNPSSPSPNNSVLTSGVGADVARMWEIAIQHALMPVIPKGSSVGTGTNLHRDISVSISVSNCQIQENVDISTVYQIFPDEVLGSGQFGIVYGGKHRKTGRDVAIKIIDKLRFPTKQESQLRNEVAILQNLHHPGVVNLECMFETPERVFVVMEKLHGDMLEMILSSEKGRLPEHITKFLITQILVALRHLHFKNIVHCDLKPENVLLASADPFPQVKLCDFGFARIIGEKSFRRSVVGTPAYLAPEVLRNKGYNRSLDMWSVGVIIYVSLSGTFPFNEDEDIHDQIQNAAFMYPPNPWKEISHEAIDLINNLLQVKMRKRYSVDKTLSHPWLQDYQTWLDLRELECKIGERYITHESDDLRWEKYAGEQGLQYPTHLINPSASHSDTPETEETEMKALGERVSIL
Procedure: as §1, §2

Percent Competition ([1]; compound concentration 10 uM): 95% | inhibition at 10 µM ([2]; PAK7, compound concentration 10 uM, read-out: Percent Competition): 86% | inhibition at 10 µM ([3]; PCTK3, compound concentration 10 uM, read-out: Percent Competition): 77% | inhibition at 10 µM ([4]; TTK, compound concentration 10 uM, read-out: Percent Competition): 88% | inhibition at 10 µM ([5]; compound concentration 10 uM, read-out: Percent Competition): 100% | inhibition at 10 µM ([6]; CSNK1E, compound concentration 10 uM, read-out: Percent Competition): 100% | inhibition at 10 µM ([7]; CAMK1, compound concentration 10 uM, read-out: Percent Competition): < 50% | inhibition at 10 µM ([8]; PRKD1, compound concentration 10 uM, read-out: Percent Competition): 92%
SMILES: Fc1ccc(-c2c(-c3ccncc3)[nH]c3nccnc23)cc1 [RO1155697-000-005]

% Competition [1]: 95% | inhibition at 10 µM ([2]; PAK7, 10 µM, read-out: % Competition): 86% | inhibition at 10 µM ([3]; PCTK3, 10 µM, read-out: % Competition): 77% | inhibition at 10 µM ([4]; TTK, 10 µM, read-out: % Competition): 88% | inhibition at 10 µM ([5]; 10 µM, read-out: % Competition): 100% | inhibition at 10 µM ([6]; CSNK1E, 10 µM, read-out: % Competition): 100% | competition [7]: < 50% | inhibition at 10 µM ([8]; PRKD1 (PKD1), 10 µM, read-out: % Competition): 92%
SMILES: Fc1ccc(-c2c(-c3ccncc3)[nH]c3nccnc23)cc1 [Compound 122]

SMILES: CC(O)CNc1cc(-c2[nH]c3cccnc3c2-c2ccc(F)cc2)ccn1 (stereo not drawn) [Compound 140]
% Competition [1]: 84% | inhibition at 10 µM ([2]; read-out: % Competition): < 50% | inhibition at 10 µM ([3]; read-out: % Competition): < 50% | inhibition at 10 µM ([4]; read-out: % Competition): 90% | % Competition ([5]; 10 µM): 100% | inhibition at 10 µM ([6]; read-out: % Competition, CSNK1E, 10 µM): 99 to 100% | competition [7]: < 50% | inhibition at 10 µM ([8]; read-out: % Competition): 83%
